Like-named read-outs stand apart in the source and are kept apart here. One block for each molecule: values may come before it.
What was measured:
[1] = molecular target: T1, BTK kinase domain (389-659) (Homo sapiens, UniProt Q06187); experiment: kinase inhibition, Caliper mobility shift; assay type: biochemical; conditions: 0.047 mM ATP, 0.002 mM peptide, pH 7.5, 32 °C, 60 min
T1 construct: kinase domain 389-659; His-PreScission (with or without Avi) construct, Sf9 cells
Excerpt: kinase inhibition, Caliper mobility shift on BTK kinase domain (389-659) | weaker affinity for BTK of the DBt-6 and DBt-8 was additionally corroborated by enzymatic inhibition

[2] = molecular target: T2, DCAF1(1073-1399)_E1398S (WDR domain, Avi/His-tagged) (Homo sapiens, UniProt Q9Y4B6, E1398S); experiment: TR-FRET competition with bodipy ligand; assay type: binding; conditions: 30 mM phosphate pH 7.4, 140 mM NaCl, 22 °C, no BTK added
T2 construct: WDR (WD40) domain 1073-1399 with E1398S; Avi and His tags (N-terminal Avi, C-terminal His for SPR; C-terminal Avi-His for TR-FRET), biotinylated by BirA; Sf9 cells

BTK-NanoLuc = molecular target: T3, BTK-NanoLuc (Homo sapiens, UniProt Q06187); experiment: NanoBRET tracer displacement; assay type: cell-based; conditions: digitonin-permeabilized cells, 0.5 µM Tracer-05, 2 h; ATP site
T3 construct: full-length BTK fused to NanoLuc (pLenti6 BTK-Nanoluc), transiently expressed in HEK293-A cells

[3] = molecular target: T2, DCAF1(1073-1399)_E1398S (WDR domain, Avi/His-tagged); experiment: fluorescence polarization; assay type: binding

T2 sequence (Q9Y4B6 1073-1399 E1398S): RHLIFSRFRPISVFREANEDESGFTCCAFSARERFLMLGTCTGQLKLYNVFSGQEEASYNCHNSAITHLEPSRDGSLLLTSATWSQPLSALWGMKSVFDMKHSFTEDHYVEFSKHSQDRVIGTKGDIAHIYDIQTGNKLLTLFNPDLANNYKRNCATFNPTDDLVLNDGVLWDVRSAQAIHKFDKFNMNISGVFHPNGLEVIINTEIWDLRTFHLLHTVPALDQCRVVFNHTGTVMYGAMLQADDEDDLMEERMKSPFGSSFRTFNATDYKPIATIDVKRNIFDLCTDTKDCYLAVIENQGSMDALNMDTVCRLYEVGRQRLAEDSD
T1 sequence (Q06187 389-659): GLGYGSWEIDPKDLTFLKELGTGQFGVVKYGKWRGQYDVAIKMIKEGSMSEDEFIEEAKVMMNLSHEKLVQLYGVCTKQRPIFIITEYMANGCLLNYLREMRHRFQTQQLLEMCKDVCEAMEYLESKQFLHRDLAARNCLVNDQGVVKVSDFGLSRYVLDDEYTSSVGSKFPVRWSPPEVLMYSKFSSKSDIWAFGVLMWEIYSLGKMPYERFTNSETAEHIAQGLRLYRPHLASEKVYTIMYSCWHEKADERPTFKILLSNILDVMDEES
T3 sequence (Q06187 2-659): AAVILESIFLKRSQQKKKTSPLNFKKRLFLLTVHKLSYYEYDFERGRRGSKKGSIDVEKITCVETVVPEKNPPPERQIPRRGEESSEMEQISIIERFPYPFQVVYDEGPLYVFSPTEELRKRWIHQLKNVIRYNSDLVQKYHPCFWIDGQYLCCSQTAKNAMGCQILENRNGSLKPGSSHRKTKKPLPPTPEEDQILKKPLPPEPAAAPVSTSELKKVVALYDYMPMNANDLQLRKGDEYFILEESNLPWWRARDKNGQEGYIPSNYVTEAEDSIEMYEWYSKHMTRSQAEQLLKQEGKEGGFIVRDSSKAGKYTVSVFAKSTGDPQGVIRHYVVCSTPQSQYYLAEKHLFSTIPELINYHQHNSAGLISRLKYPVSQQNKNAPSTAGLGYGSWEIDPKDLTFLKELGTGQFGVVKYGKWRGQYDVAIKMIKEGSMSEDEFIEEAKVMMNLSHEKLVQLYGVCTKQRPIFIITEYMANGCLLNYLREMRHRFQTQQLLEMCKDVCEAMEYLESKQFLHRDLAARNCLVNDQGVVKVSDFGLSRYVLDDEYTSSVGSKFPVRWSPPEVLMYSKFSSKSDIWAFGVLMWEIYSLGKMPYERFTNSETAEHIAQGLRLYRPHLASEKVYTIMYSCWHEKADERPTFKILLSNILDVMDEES

IC50 [1]: 0.51 µM
IC50 ([2]; read-out: IC50): 0.056 ± 0.037 µM
IC50 (BTK-NanoLuc): 2.35 µM
Compound: Cc1c(NC(=O)c2ccc(C(C)(C)O)cc2F)cc(F)cc1-c1ncnc2[nH]c(-c3ccc(CNCCOCCOCC(=O)N4CCCC(C(=O)N5CCN(c6ccc7c(NCCN)nc(C8(c9ccc(Cl)cc9)CCCCC8)nc7c6)CC5)C4)cc3)cc12 (centres unmarked) [DBt-6]

Kd [3]: 0.069 ± 0.006 µM
Compound: Cc1cc(C)n2c1C=C1C=CC(CCC(=O)N3CCN(c4ccc5c(NCCN)nc(C(C)(C)c6ccc(Cl)cc6)nc5c4)CC3)=[N+]1[B-]2(F)F [bodipy labelled ligand]

Compound: CC(=O)N1CCN(c2ccc3c(NCCN)nc(C4(c5ccc(Cl)cc5)CCCCC4)nc3c2)CC1 [compound 13, VHF543]
IC50 [2]: IC50 determined by DCAF1 TR-FRET for selected DCAF1 binders

From doi:10.1101/2023.04.09.536153v2, “Reinstating targeted protein degradation with DCAF1 PROTACs in CRBN PROTAC resistant settings” (biorxiv, 2023)
